# Patent publication US20240409532A1, “BIPHENYL SULFONAMIDES AS DUAL ANGIOTENSIN ENDOTHELIN RECEPTOR ANTAGONISTS” (Chongqing Hongyuantang Medicine Co., Ltd., priority 2023, published 2024)
# Molecular target: T1, ETA receptor (Rattus norvegicus, UniProt P26684)
# T1 construct: evaluated in isolated rat aortic ring; from tissue; host or cells: isolated rat aortic ring
# T1 sequence (P26684 21-426): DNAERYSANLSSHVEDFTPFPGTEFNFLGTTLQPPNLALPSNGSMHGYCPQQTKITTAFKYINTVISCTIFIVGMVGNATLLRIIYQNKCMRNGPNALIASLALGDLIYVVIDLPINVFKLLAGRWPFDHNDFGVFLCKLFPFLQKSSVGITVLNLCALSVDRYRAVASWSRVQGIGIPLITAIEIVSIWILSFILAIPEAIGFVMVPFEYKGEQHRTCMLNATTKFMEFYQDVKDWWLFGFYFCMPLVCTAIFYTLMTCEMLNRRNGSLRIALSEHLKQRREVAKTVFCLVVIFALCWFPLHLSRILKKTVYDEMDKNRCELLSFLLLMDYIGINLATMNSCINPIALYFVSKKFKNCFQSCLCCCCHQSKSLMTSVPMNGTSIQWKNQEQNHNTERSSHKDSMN
# Experiment: In vitro evaluation of inhibitory activity against ETA receptor (isolated rat aortic ring, literature procedure)
# Assay type: biochemical
# Settings: telmisartan as control
# Method: The biological activity of compounds was evaluated in isolated rat aortic ring and in systemic arterial pressure (SAP) of anesthetized rat experiments using the literature procedures in Chinese Pharmacological Bulletin 2008, 24 (11): 1422-1426.
# Telmisartan, as an AT1 receptor antagonist approved for marketing by the US FDA in 1998, was used as a control to evaluate the inhibitory activity of AT1 and ETA receptors.
row,Structure (SMILES),Ki
1,"CCCc1nc2c(C)cc(-c3nc4ccccc4n3C)cc2n1Cc1ccc(-c2ccccc2C(=O)O)cc1 [Telmisartan, reference compound]",> 103 nM
2,"CCOCc1cc(Cn2c(CC)nc3c(C)cc(-c4nc5ccccc5n4C)cc32)ccc1-c1ccccc1S(=O)(=O)Nc1noc(C)c1C [Compound 1-7, N-(4,5-dimethylisoxazol-3-yl)-2′-(ethoxymethyl)-4′-((2′-ethyl-1,7′-dimethyl-1H,3′H-[2,5′-bibenzo[d]imidazol]-3′-yl)methyl)-[1,1′-biphenyl]-2-sulfonamide]",13.2 ± 3.3 nM
3,"CCCc1nc2c(C)cc(-c3nc4ccccc4n3C)cc2n1Cc1ccc(-c2ccccc2S(=O)(=O)Nc2noc(C)c2C)c(COCC)c1 [Compound 1-10, 4′-((1,7′-dimethyl-2′-propyl-1H,3′H-[2,5′-bibenzo[d]imidazol]-3′-yl)methyl)-N-(4,5-dimethylisoxazol-3-yl)-2′-(ethoxymethyl)-[1,1′-biphenyl]-2-sulfonamide]",6.8 ± 1.8 nM
4,"CCCCc1nc2c(C)cc(-c3nc4ccccc4n3C)cc2n1Cc1ccc(-c2ccccc2S(=O)(=O)Nc2noc(C)c2C)c(COCC)c1 [Compound 1-13, 4′-((2′-butyl-1,7′-dimethyl-1H,3′H-[2,5′-bibenzo[d]imidazol]-3′-yl)methyl)-N-(4,5-dimethylisoxazol-3-yl)-2′-(ethoxymethyl)-[1,1′-biphenyl]-2-sulfonamide]",7.2 ± 2.1 nM
5,CCOCc1cc(Cn2c(C)nc3c(C)cc(-c4nc5ccccc5n4C)cc32)ccc1-c1ccccc1S(=O)(=O)Nc1noc(C)c1C [Compound 1-4],> 102 nM

# Now from value to compound:
row,Ki,Structure (SMILES)
1,8.8 ± 2.2 nM,"CCCc1nc2c(C)cc(-c3nc4ccccc4n3C)cc2n1Cc1ccc(-c2ccccc2S(=O)(=O)Nc2onc(C)c2C)c(COCC)c1 [Compound 2-3, 4′-((1,7′-dimethyl-2′-propyl-1H,3′H-[2,5′-bibenzo[d]imidazol]-3′-yl)methyl)-N-(3,4-dimethylisoxazol-5-yl)-2′-(ethoxymethyl)-[1,1′-biphenyl]-2-sulfonamide]"
2,9.2 ± 2.3 nM,"CCCCc1nc2c(C)cc(-c3nc4ccccc4n3C)cc2n1Cc1ccc(-c2ccccc2S(=O)(=O)Nc2onc(C)c2C)c(COCC)c1 [Compound 2-5, 4′-((2′-butyl-1,7′-dimethyl-1H,3′H-[2,5′-bibenzo[d]imidazol]-3′-yl)methyl)-N-(3,4-dimethylisoxazol-5-yl)-2′-(ethoxymethyl)-[1,1′-biphenyl]-2-sulfonamide]"
